BindingDB's records for doi:10.1016/0960-894X(96)00068-6 (1996)

Columns and labels:
[1] = Inhibition of jack bean alpha-mannosidase
[2] = Compound was evaluated for inhibition of beta-glucosidase from almonds(sigma G 4511).
[3] = Compound was evaluated for inhibition of alpha-fucosidase from bovine kidney(sigma F 5884).
[4] = Compound was evaluated for inhibition of beta-galactosidase from aspergillus oryzae (sigma G 7256).
[5] = Compound was evaluated for inhibition of alpha-galactosidase from green coffee beans (sigma G 8507).

IC50 [1]: > 1000 µM | IC50 [2]: 80 µM | IC50 [3]: 270 µM | IC50 [4]: > 1000 µM | IC50 [5]: > 1000 µM
Structure (SMILES): CCCCN1CC(C)C(O)C(O)C1 (stereo not given) [1-Butyl-5-methyl-piperidine-3,4-diol]
